SMILES strings stand for the structures. “Also recorded” adds a separate entry of the source.

Data set [1] can be described thus: Cellular viability assay (alamarBlue) in TZM-bl cells. Format: cell-based. The conditions noted are these: human, 50% cytotoxic concentration. The protocol: Before the antiviral activity screening, all spirocyclopentene-β-lactams were assayed for their in vitro cytotoxic activity (CC50) in TZM-bl cells (Table 4).
TZM-bl cells (AIDS Research and Reference Reagent Program, National Institutes of Health, United States) were cultured in complete growth medium consisting of Dulbecco’s Minimal Essential Medium (DMEM) supplemented with 10% fetal bovine serum (FBS), 100 U/ml of penicillin–streptomycin (Gibco/Invitrogen, United States), 1 mM of sodium pyruvate (Gibco/Invitrogen, United States), 2 mM of L-glutamine (Gibco/Invitrogen, United States), and 1 mM of non-essential amino acids (Gibco/Invitrogen, United States). Cell cultures were maintained at 37°C in 5% CO2.
The in vitro cytotoxicity of test compounds was evaluated in TZM-bl cells using alamarBlue cell viability reagent (Life Technologies, United States), according to the instructions of the manufacturer. The cells were cultured in the presence and absence of serial-fold dilutions of the test compounds. Each dilution of each compound was performed in triplicate wells. Medium controls (only growth medium), cell controls (cells without test compound), and cytotoxicity controls (a compound that kills cells) were employed in each assay.
A general note: Resazurin is reduced to fluorescent resorufin, in cell work by metabolically active cells.

Another data set has as its system HIV-1 SG3.1. Description: microbe, parasite or virus in culture. The conditions noted are these: for Therapeutic index (CC50/IC50): CC50 in TZM-bl cells; for IC50 / IC90 / inhibition at 25 µg/mL: Human immunodeficiency virus 1, TZM-bl; for IC50 / IC90: 48 h; for IC50: read-out: IC50 HIV-1, TZM-bl cells, 48 h; for IC90: read-out: IC90 HIV-1; for inhibition at 25 µg/mL: read-out: MPI (%) 25 μg/mL. The text has this:
The HIV-1 SG3.1 is a reference subtype B strain that uses the CXCR4 coreceptor. It was obtained by transfection of HEK293T cells with pSG3.1 plasmid using jetPRIME transfection reagent (Polyplus-transfection SA, Illkirch, France), according to the instructions of the manufacturer.
Briefly, TZM-bl cells were infected with 200 TCID50 of HIV-1 or HIV-2 in the presence of serial-fold dilutions of the compounds in the growth medium, supplemented with diethylaminoethyl-dextran (DEAE-dextran). After 48 h of infection, luciferase expression was quantified with Pierce Firefly Luc One-Step Glow Assay Kit (ThermoFisher Scientific, Rockford, United States), according to the instructions of the manufacturer. For each compound dilution, the assay was set up in triplicate wells. Virus controls, cell controls, and inhibitors controls (drugs with a known action against each virus) were employed.

The compound `CC1(C)SC2N(C(=O)C23CC=C(C(=O)OCc2ccccc2)C3C(=O)c2cc(F)cc(F)c2)C1C(=O)OC(c1ccccc1)c1ccccc1` (stereo not shown) [Compound 12f, (1’R,2’R)-Benzhydryl spiro[(2-(3,5-difluorobenzoyl)-3-benzyloxycarbonylcyclopent-3-ene)-1’,6-penicillanate]] gave a melting point of 69.5 to 71.5 °C. This compound gave a CC50 in data set [1] of 70.1 µM. The “Therapeutic index (CC50/IC50)” value in the data set on HIV-1 SG3.1 (HIV-1) stood at 531.34. In the data set on HIV-1 SG3.1, the half-inhibitory concentration (IC50) came out at 0.132 µM, the IC90 came to 0.585 µM and the inhibition at 25 µg/mL was determined as 88%.

In data set [1], `Cc1ccc(COC(=O)C2=CCC3(C(=O)N4C(C(=O)OC(c5ccccc5)c5ccccc5)C(C)(C)SC43)C2C(=O)c2ccc(F)cc2)cc1` (stereo not shown) [Compound 14b, (1’R,2’R)-Benzhydryl spiro[(2-(4-fluorobenzoyl)-3-(4-methylbenzyloxycarbonyl)cyclopent-3-ene)-1’,6-penicillanate]] gave a CC50 of 78.3 µM. Further, in the data set with HIV-1 SG3.1, the IC50 worked out at 0.146 µM, the IC90 is 0.338 µM and the inhibition at 25 µg/mL is 95%.

Regarding `CC1(C)SC2N(C(=O)C23CC=C(C(=O)OCc2ccccc2)C3C(=O)c2ccc3ccccc3c2)C1C(=O)OC(c1ccccc1)c1ccccc1` (stereo not shown) [Compound 12h, (1’R,2’R)-Benzhydryl spiro[(2-naphthoyl-3-benzyloxycarbonylcyclopent-3-ene)-1’,6-penicillanate]], the melting point lay within 81.5 to 83.5 °C. This compound showed a CC50 in data set [1] of 73.6 µM. Besides, in the data set with HIV-1 SG3.1, the inhibition at 25 µg/mL was 0%.

With `CC1(C)SC2N(C(=O)C23C(C(=O)OCc2ccccc2)=CCC3C(=O)c2cc(F)cc(F)c2)C1C(=O)OC(c1ccccc1)c1ccccc1` (stereo not shown) [Compound 13f, (1’R,2’R)-Benzhydryl spiro[(2-(3,5-difluorobenzoyl)-5-benzyloxycarbonylcyclopent-4-ene)-1’,6-penicillanate]], the melting point fell in the range of 134.8 to 136.8 °C. Moreover, half-maximal cytotoxicity in data set [1] (CC50) was put at 58.8 µM. Further, the inhibition at 25 µg/mL in the data set with HIV-1 SG3.1 stood at 0%.

Consider `CC1(C)SC2N(C(=O)C23C(C(=O)OCc2ccccc2)=CCC3C(=O)c2ccco2)C1C(=O)OC(c1ccccc1)c1ccccc1` (stereo not shown) [Compound 13i, (1’R,2’R)-Benzhydryl spiro[(2-furoyl-5-benzyloxycarbonylcyclopent-4-ene)-1’,6-penicillanate]], for which the melting point was 112.8 to 114.8 °C. This compound also displayed a CC50 in data set [1] of 61.2 µM. The inhibition at 25 µg/mL in the data set with HIV-1 SG3.1 was determined as 0%.

Consider `CC1(C)SC2N(C(=O)C23CC=C(C(=O)OCc2ccccc2)C3C(=O)c2ccco2)C1C(=O)OC(c1ccccc1)c1ccccc1` (stereo not shown) [Compound 12i, (1’R,2’R)-Benzhydryl spiro[(2-furoyl-3-benzyloxycarbonylcyclopent-3-ene)-1’,6-penicillanate]], for which the melting point is 76.5 to 78.5 °C. The compound also registered a CC50 in data set [1] of 78.3 µM. Also, the “Therapeutic index (CC50/IC50)” value with HIV-1 SG3.1 (HIV-1) is recorded as 559.29. In addition, in the data set with HIV-1 SG3.1, the IC50 is 0.14 µM, the IC90 stood at 0.223 µM and the inhibition at 25 µg/mL turned out to be 87%.

As for `CC1(C)SC2N(C(=O)C23CC=C(C(=O)OCc2ccc([N+](=O)[O-])cc2)C3C(=O)c2ccccc2)C1C(=O)OC(c1ccccc1)c1ccccc1` (stereo not shown) [Compound 9h, (1’R,2’R)-Benzhydryl spiro[(2-benzoyl-3-(4-nitrobenzyloxycarbonyl)cyclopent-3-ene)-1’,6-penicillanate]], the melting point was in the range of 81.2 to 83.1 °C. In data set [1], it took 56 µM to reach half-maximal cytotoxicity (CC50). Besides, the “anti-HIV activity (in words)” value with HIV-1 SG3.1 (HIV-1) is “inactive; also recorded: total loss of antiviral activity”. Also, in the data set on HIV-1 SG3.1, the inhibition at 25 µg/mL was found to be 0%.

In turn, `CCCCCOC(=O)C1=CCC2(C(=O)N3C(C(=O)OC(c4ccccc4)c4ccccc4)C(C)(C)SC32)C1C(=O)c1ccccc1` (stereo not shown) [Compound 9e, (1’R,2’R)-Benzhydryl spiro[(2-benzoyl-3-pentoxycarbonylcyclopent-3-ene)-1’,6-penicillanate]] yielded a CC50 in data set [1] of 60.3 µM. The inhibition at 25 µg/mL in the data set on HIV-1 SG3.1 is 44%.

In turn, `C#CCOC(=O)C1=CCC2(C(=O)N3C(C(=O)OC(c4ccccc4)c4ccccc4)C(C)(C)SC32)C1C(=O)c1ccccc1` (stereo not shown) [Compound 9m, (1’R,2’R)-Benzhydryl spiro[(2-benzoyl-3-(prop-2-yn-1-yloxycarbonyl)cyclopent-3-ene)-1’,6-penicillanate]] showed a melting point of 62.2 to 64.8 °C. The same compound returned a CC50 in data set [1] of 60.1 µM. The “Therapeutic index (CC50/IC50)” value in the data set with HIV-1 SG3.1 (HIV-1) was determined as 296.11. Besides, in the data set on HIV-1 SG3.1, the IC50 worked out at 0.203 µM, the IC90 was 0.437 µM and the inhibition at 25 µg/mL stood at 94%.

In turn, `CC1(C)SC2N(C(=O)C23CC=C(C(=O)OCc2ccc(F)cc2)C3C(=O)c2ccccc2)C1C(=O)OC(c1ccccc1)c1ccccc1` (stereo not shown) [Compound 9l, (1’R,2’R)-Benzhydryl spiro[(2-benzoyl-3-(4-fluorobenzyloxycarbonyl)cyclopent-3-ene)-1’,6-penicillanate]] yielded a melting point of 67.2 to 69.3 °C. In data set [1], this compound came in with a CC50 of 55.8 µM. Moreover, in the data set with HIV-1 SG3.1 (HIV-1), the “Therapeutic index (CC50/IC50)” value is 502.97. Further, in the data set with HIV-1 SG3.1, the IC50 is 0.111 µM, the IC90 was found to be 0.221 µM and the inhibition at 25 µg/mL worked out at 100%.

For `CC1(C)SC2N(C(=O)C23CC=C(C(=O)OCc2ccccc2)C3C(=O)c2ccc(Cl)cc2)C1C(=O)OC(c1ccccc1)c1ccccc1` (stereo not shown) [Compound 12b, (1’R,2’R)-Benzhydryl spiro[(2-(4-chlorobenzoyl)-3-benzyloxycarbonylcyclopent-3-ene)-1’,6-penicillanate]], the melting point is 145.2 to 146.5 °C. This compound also showed a CC50 in data set [1] of 56 µM. For the same compound, the “Therapeutic index (CC50/IC50)” value with HIV-1 SG3.1 (HIV-1) turned out to be 888.73. For the same compound, in the data set with HIV-1 SG3.1, the IC50 stood at 0.063 µM, the IC90 was determined as 0.104 µM and the inhibition at 25 µg/mL stood at 92%.

The compound `CC1(C)SC2N(C(=O)C23C(C(=O)OCc2ccccc2)=CCC3C(=O)c2ccc(Cl)cc2)C1C(=O)OC(c1ccccc1)c1ccccc1` (stereo not shown) [Compound 13b, (1’R,2’R)-Benzhydryl spiro[(2-(4-chlorobenzoyl)-5-benzyloxycarbonylcyclopent-4-ene)-1’,6-penicillanate]] had a melting point of 116.3 to 118.3 °C. Further, in data set [1], the CC50 turned out to be 63.7 µM. In the data set with HIV-1 SG3.1, the inhibition at 25 µg/mL came out at 0%.

As to `CC1(C)SC2N(C(=O)C23C(C(=O)OCc2ccccc2)=CCC3C(=O)c2ccc(Br)cc2)C1C(=O)OC(c1ccccc1)c1ccccc1` (stereo not shown) [Compound 13c, (1’R,2’R)-Benzhydryl spiro[(2-(4-bromobenzoyl)-5-benzyloxycarbonylcyclopent-4-ene)-1’,6-penicillanate]], the melting point is 115.9 to 117.9 °C. This compound showed a CC50 in data set [1] of 50.6 µM. Further, the inhibition at 25 µg/mL with HIV-1 SG3.1 is 0%.

As to `CC1(C)SC2N(C(=O)C23C(C(=O)OCc2ccccc2)=CCC3C(=O)c2ccc(C(F)(F)F)cc2)C1C(=O)OC(c1ccccc1)c1ccccc1` (stereo not shown) [Compound 13e, (1’R,2’R)-Benzhydryl spiro[(2-(4-trifluoromethylbenzoyl)-5-benzyloxycarbonylcyclopent-4-ene)-1’,6-penicillanate]], the melting point lay in the range of 141.1 to 143.1 °C. This compound showed a CC50 in data set [1] of 54.7 µM. The inhibition at 25 µg/mL in the data set with HIV-1 SG3.1 amounted to 0%.

For the compound `CC(C)CCOC(=O)C1=CCC2(C(=O)N3C(C(=O)OC(c4ccccc4)c4ccccc4)C(C)(C)SC32)C1C(=O)c1ccccc1` (stereo not shown) [Compound 9f, (1’R,2’R)-Benzhydryl spiro[(2-benzoyl-3-isopentoxycarbonylcyclopent-3-ene)-1’,6-penicillanate]], the midpoint of cytotoxicity in data set [1], the CC50, lay at 53.4 µM. In addition, the inhibition at 25 µg/mL in the data set with HIV-1 SG3.1 is 21%.

Take `CC1(C)SC2N(C(=O)C23CC=C(C(=O)Oc2ccc4ccccc4c2)C3C(=O)c2ccccc2)C1C(=O)OC(c1ccccc1)c1ccccc1` (stereo not shown) [Compound 9d, (1’R,2’R)-Benzhydryl spiro[(2-benzoyl-3-(2-naphthoxycarbonyl)cyclopent-3-ene)-1’,6-penicillanate]]: in data set [1], half-maximal cytotoxicity (CC50) was put at 38 µM. The inhibition at 25 µg/mL with HIV-1 SG3.1 stood at 54%.

`CC(COC(=O)C1=CCC2(C(=O)N3C(C(=O)OC(c4ccccc4)c4ccccc4)C(C)(C)SC32)C1C(=O)c1ccccc1)c1ccccc1` (stereo not shown) [Compound 9o, (1’R,2’R)-Benzhydryl spiro[(2-benzoyl-3-(1-phenylpropan-2-yloxycarbonyl)cyclopent-3-ene)-1’,6-penicillanate]] returned a CC50 in data set [1] of 44.7 µM. In addition, the inhibition at 25 µg/mL in the data set on HIV-1 SG3.1 amounted to 0%.

In general, CC50 refers to the concentration at which the toxic effect on the cells reaches its halfway point. Lower therefore signals harm at low concentration. A word on the IC50: it is the midpoint of a concentration-inhibition curve. The term IC90 denotes the point of the concentration-response curve where the effect stands at 90%. Usually melting point stands for the temperature of the solid-liquid transition.

Source of the values: article PMC9585939, “Unveiling a family of spiro-β-lactams with anti-HIV and antiplasmodial activity via phosphine-catalyzed [3+2] annulation of 6-alkylidene-penicillanates and allenoates” (Frontiers in Chemistry, 2022).
